Here are results for two molecules from article PMC6912803, “Sideritis Perfoliata (Subsp. Perfoliata) Nutritive Value and Its Potential Medicinal Properties” (Antioxidants, 2019).

For test [1], the system named is T1, mushroom tyrosinase.
T1 construct: gene PPO3; native commercial mushroom tyrosinase (Sigma-Aldrich), isoenzyme mixture
Kind of test: L-tyrosine oxidation, absorbance at […] nm over […] min. It counts as biochemical. Set-up: reference not given here. The following applies: 2 mM L-tyrosine stock (110 µL added), potassium phosphate pH 6.5, room temperature, 5 min preincubation.

Test [2] deals with T2, Porcine pancreatic elastase (PPE) (Sus scrofa, UniProt P00772).
T2 construct: gene CELA1; mature active protease
T2 sequence (P00772 27-266): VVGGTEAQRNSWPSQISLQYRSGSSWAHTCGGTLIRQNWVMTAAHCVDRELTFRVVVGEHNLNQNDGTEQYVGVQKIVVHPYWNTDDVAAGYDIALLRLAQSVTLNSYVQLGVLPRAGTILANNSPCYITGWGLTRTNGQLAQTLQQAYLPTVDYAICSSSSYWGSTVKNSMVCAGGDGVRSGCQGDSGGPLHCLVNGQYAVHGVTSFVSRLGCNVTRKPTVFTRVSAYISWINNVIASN
Description: N-succinyl-(Ala)3-p-nitroanilide hydrolysis, absorbance at […] nm. The class given is biochemical. The following applies: read-out: Positive Control MIC/IC50 ± SD (μg/mL) (converted).

Structures are written as SMILES.

In the case of `O=c1cc(CO)occ1O` [kojic acid], the “Positive Control MIC/IC50 ± SD” value in test [1] was determined as 2.84 ± 0.23 µg/mL.

Take `C[C@H]1[C@H](C)CC[C@]2(C(=O)O)CC[C@]3(C)C(=CC[C@@H]4[C@@]5(C)CC[C@H](O)C(C)(C)[C@@H]5CC[C@]43C)[C@H]12` [ursolic acid]: the IC50 in test [2] was 40.4 µM.
